Measured values: US9113629B2, “4-amino-6-(4-substituted-phenyl)-picolinates and 6-amino-2-(4-substituted-phenyl)-pyrimidine-4-carboxylates and their use as herbicides” (DOW AGROSCIENCES LLC, priority 2013, dated 2015)

System: LOLSS: ryegrass including, Italian ryegrass (Lolium multiflorum), rigid ryegrass (Lolium rigidum), annual ryegrass (Lolium multiflorum subsp. Gaudini)
Experiment: Post-emergent Test III, herbicidal activity in wheat and barley
Format: in vivo
Settings: probit analysis, dose for growth reduction of 50 percent, 21 days after application
Summary of the method: (§1)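 Plants at the second to third true-leaf stage, grown in a greenhouse at about 18/17 °C with a 14 h photoperiod, were sprayed post-emergence at 187 L/ha with the high rate and ½× to 1/16× serial dilutions in an acetone/DMSO/crop-oil/surfactant carrier. Injury was rated visually at 21 d on a 0–100% scale, and GR20–GR90 were derived by probit analysis.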

Row | SMILES | GR50 LOLSS
1 | COC(=O)c1nc(-c2ccc(I)cc2)c(F)c(N)c1Cl [Compound 118, Methyl 4-amino-6-(4-iodophenyl)-3-chloro-5-fluoropicolinate] | 49 g ai/ha

Same assay, conditions: probit analysis, dose for growth reduction of 80 percent, 21 days after application

Row | SMILES | GR80 LOLSS
2 | COC(=O)c1nc(-c2ccc(I)cc2)c(F)c(N)c1Cl [Compound 118, Methyl 4-amino-6-(4-iodophenyl)-3-chloro-5-fluoropicolinate] | 121 g ai/ha

System: APESV: bentgrass (Apera spica-venti)
Experiment: as above
Format: in vivo
Settings: Apera spica-venti, post-emergence, 504 h; 35 g ai/ha; read-out: Visual Growth Reduction (%) 21 Days After Application APESV
Summary of the method: as §1

Row | SMILES | pest or weed control at 35 g/ha
3 | COC(=O)c1nc(-c2ccc(I)cc2)c(F)c(N)c1Cl [Compound 118, Methyl 4-amino-6-(4-iodophenyl)-3-chloro-5-fluoropicolinate] | 60 to 74%

Same assay, conditions: Apera spica-venti, post-emergence, 504 h; 70 g ai/ha; read-out: Visual Growth Reduction (%) 21 Days After Application APESV

Row | SMILES | pest or weed control at 70 g/ha
4 | COC(=O)c1nc(-c2ccc(I)cc2)c(F)c(N)c1Cl [Compound 118, Methyl 4-amino-6-(4-iodophenyl)-3-chloro-5-fluoropicolinate] | 75 to 84%

Same assay, conditions: Apera spica-venti, post-emergence, 504 h; 140 g ai/ha; read-out: Visual Growth Reduction (%) 21 Days After Application APESV

Row | SMILES | pest or weed control at 140 g/ha
5 | COC(=O)c1nc(-c2ccc(I)cc2)c(F)c(N)c1Cl [Compound 118, Methyl 4-amino-6-(4-iodophenyl)-3-chloro-5-fluoropicolinate] | 85 to 94%

Same assay, conditions: probit analysis, dose for growth reduction of 50 percent, 21 days after application

Row | SMILES | GR50 APESV
6 | COC(=O)c1nc(-c2ccc(I)cc2)c(F)c(N)c1Cl [Compound 118, Methyl 4-amino-6-(4-iodophenyl)-3-chloro-5-fluoropicolinate] | 22 g ai/ha

Same assay, conditions: probit analysis, dose for growth reduction of 80 percent, 21 days after application

Row | SMILES | GR80 APESV
7 | COC(=O)c1nc(-c2ccc(I)cc2)c(F)c(N)c1Cl [Compound 118, Methyl 4-amino-6-(4-iodophenyl)-3-chloro-5-fluoropicolinate] | 60 g ai/ha

System: MATSS: scented mayweed (Matricaria chamomilla), pineappleweed (Matricaria matricarioides)
Experiment: as above
Format: in vivo
Settings: Matricaria chamomilla, post-emergence, 504 h; 35 g ai/ha; read-out: Visual Growth Reduction (%) 21 Days After Application MATSS
Summary of the method: as §1

Row | SMILES | pest or weed control at 35 g/ha
8 | COC(=O)c1nc(-c2ccc(I)cc2)c(F)c(N)c1Cl [Compound 118, Methyl 4-amino-6-(4-iodophenyl)-3-chloro-5-fluoropicolinate] | 60 to 74%

Same assay, conditions: Matricaria chamomilla, post-emergence, 504 h; 70 g ai/ha; read-out: Visual Growth Reduction (%) 21 Days After Application MATSS

Row | SMILES | pest or weed control at 70 g/ha
9 | COC(=O)c1nc(-c2ccc(I)cc2)c(F)c(N)c1Cl [Compound 118, Methyl 4-amino-6-(4-iodophenyl)-3-chloro-5-fluoropicolinate] | 75 to 84%

Same assay, conditions: Matricaria chamomilla, post-emergence, 504 h; 140 g ai/ha; read-out: Visual Growth Reduction (%) 21 Days After Application MATSS

Row | SMILES | pest or weed control at 140 g/ha
10 | COC(=O)c1nc(-c2ccc(I)cc2)c(F)c(N)c1Cl [Compound 118, Methyl 4-amino-6-(4-iodophenyl)-3-chloro-5-fluoropicolinate] | 85 to 94%

Same assay, conditions: probit analysis, dose for growth reduction of 50 percent, 21 days after application

Row | SMILES | GR50 MATSS
11 | COC(=O)c1nc(-c2ccc(I)cc2)c(F)c(N)c1Cl [Compound 118, Methyl 4-amino-6-(4-iodophenyl)-3-chloro-5-fluoropicolinate] | 14 g ai/ha

Same assay, conditions: probit analysis, dose for growth reduction of 80 percent, 21 days after application

Row | SMILES | GR80 MATSS
12 | COC(=O)c1nc(-c2ccc(I)cc2)c(F)c(N)c1Cl [Compound 118, Methyl 4-amino-6-(4-iodophenyl)-3-chloro-5-fluoropicolinate] | 60 g ai/ha

System: not listed separately
Experiment: as above
Format: in vivo, Lolium multiflorum, Lolium rigidum
Settings: Lolium multiflorum, post-emergence, 504 h; 35 g ai/ha; read-out: Visual Growth Reduction (%) 21 Days After Application LOLSS
Summary of the method: as §1

Row | SMILES | pest or weed control at 35 g/ha
13 | COC(=O)c1nc(-c2ccc(I)cc2)c(F)c(N)c1Cl [Compound 118, Methyl 4-amino-6-(4-iodophenyl)-3-chloro-5-fluoropicolinate] | 30 to 44%

Same assay, conditions: Lolium multiflorum, post-emergence, 504 h; 70 g ai/ha; read-out: Visual Growth Reduction (%) 21 Days After Application LOLSS

Row | SMILES | pest or weed control at 70 g/ha
14 | COC(=O)c1nc(-c2ccc(I)cc2)c(F)c(N)c1Cl [Compound 118, Methyl 4-amino-6-(4-iodophenyl)-3-chloro-5-fluoropicolinate] | 60 to 74%

Same assay, conditions: Lolium multiflorum, post-emergence, 504 h; 140 g ai/ha; read-out: Visual Growth Reduction (%) 21 Days After Application LOLSS

Row | SMILES | pest or weed control at 140 g/ha
15 | COC(=O)c1nc(-c2ccc(I)cc2)c(F)c(N)c1Cl [Compound 118, Methyl 4-amino-6-(4-iodophenyl)-3-chloro-5-fluoropicolinate] | 75 to 84%

System: TRZSS: wheat, including spring and winter (Triticum aestivum)
Experiment: as above
Format: in vivo
Settings: Triticum aestivum, post-emergence, 504 h; 35 g ai/ha; read-out: Visual Growth Reduction (%) 21 Days After Application TRZSS
Summary of the method: as §1

Row | SMILES | pest or weed control at 35 g/ha
16 | COC(=O)c1nc(-c2ccc(I)cc2)c(F)c(N)c1Cl [Compound 118, Methyl 4-amino-6-(4-iodophenyl)-3-chloro-5-fluoropicolinate] | 75 to 84%

Same assay, conditions: Triticum aestivum, post-emergence, 504 h; 70 g ai/ha; read-out: Visual Growth Reduction (%) 21 Days After Application TRZSS

Row | SMILES | pest or weed control at 70 g/ha
17 | COC(=O)c1nc(-c2ccc(I)cc2)c(F)c(N)c1Cl [Compound 118, Methyl 4-amino-6-(4-iodophenyl)-3-chloro-5-fluoropicolinate] | 85 to 94%

Same assay, conditions: Triticum aestivum, post-emergence, 504 h; 140 g ai/ha; read-out: Visual Growth Reduction (%) 21 Days After Application TRZSS

Row | SMILES | pest or weed control at 140 g/ha
18 | COC(=O)c1nc(-c2ccc(I)cc2)c(F)c(N)c1Cl [Compound 118, Methyl 4-amino-6-(4-iodophenyl)-3-chloro-5-fluoropicolinate] | 85 to 94%

Same assay, conditions: probit analysis, dose for growth reduction of 20 percent, 21 days after application; crop

Row | SMILES | GR20 TRZSS
19 | COC(=O)c1nc(-c2ccc(I)cc2)c(F)c(N)c1Cl [Compound 118, Methyl 4-amino-6-(4-iodophenyl)-3-chloro-5-fluoropicolinate] | 0 g ai/ha

System: SETVI: green foxtail (Setaria viridis)
Experiment: as above
Format: in vivo
Settings: Setaria viridis, post-emergence, 504 h; 35 g ai/ha; read-out: Visual Growth Reduction (%) 21 Days After Application SETVI
Summary of the method: as §1

Row | SMILES | pest or weed control at 35 g/ha
20 | COC(=O)c1nc(-c2ccc(I)cc2)c(F)c(N)c1Cl [Compound 118, Methyl 4-amino-6-(4-iodophenyl)-3-chloro-5-fluoropicolinate] | 0 to 29%

Same assay, conditions: Setaria viridis, post-emergence, 504 h; 70 g ai/ha; read-out: Visual Growth Reduction (%) 21 Days After Application SETVI

Row | SMILES | pest or weed control at 70 g/ha
21 | COC(=O)c1nc(-c2ccc(I)cc2)c(F)c(N)c1Cl [Compound 118, Methyl 4-amino-6-(4-iodophenyl)-3-chloro-5-fluoropicolinate] | 30 to 44%

Same assay, conditions: Setaria viridis, post-emergence, 504 h; 140 g ai/ha; read-out: Visual Growth Reduction (%) 21 Days After Application SETVI

Row | SMILES | pest or weed control at 140 g/ha
22 | COC(=O)c1nc(-c2ccc(I)cc2)c(F)c(N)c1Cl [Compound 118, Methyl 4-amino-6-(4-iodophenyl)-3-chloro-5-fluoropicolinate] | 60 to 74%

Same assay, conditions: probit analysis, dose for growth reduction of 50 percent, 21 days after application

Row | SMILES | GR50 SETVI
23 | COC(=O)c1nc(-c2ccc(I)cc2)c(F)c(N)c1Cl [Compound 118, Methyl 4-amino-6-(4-iodophenyl)-3-chloro-5-fluoropicolinate] | 91 g ai/ha

Same assay, conditions: probit analysis, dose for growth reduction of 80 percent, 21 days after application

Row | SMILES | GR80 SETVI
24 | COC(=O)c1nc(-c2ccc(I)cc2)c(F)c(N)c1Cl [Compound 118, Methyl 4-amino-6-(4-iodophenyl)-3-chloro-5-fluoropicolinate] | 184 g ai/ha

System: KCHSC: kochia (Kochia scoparia)
Experiment: as above
Format: in vivo
Settings: Bassia scoparia, post-emergence, 504 h; 35 g ai/ha; read-out: Visual Growth Reduction (%) 21 Days After Application KCHSC
Summary of the method: as §1

Row | SMILES | pest or weed control at 35 g/ha
25 | COC(=O)c1nc(-c2ccc(I)cc2)c(F)c(N)c1Cl [Compound 118, Methyl 4-amino-6-(4-iodophenyl)-3-chloro-5-fluoropicolinate] | 85 to 94%

Same assay, conditions: Bassia scoparia, post-emergence, 504 h; 70 g ai/ha; read-out: Visual Growth Reduction (%) 21 Days After Application KCHSC

Row | SMILES | pest or weed control at 70 g/ha
26 | COC(=O)c1nc(-c2ccc(I)cc2)c(F)c(N)c1Cl [Compound 118, Methyl 4-amino-6-(4-iodophenyl)-3-chloro-5-fluoropicolinate] | 85 to 94%

Same assay, conditions: Bassia scoparia, post-emergence, 504 h; 140 g ai/ha; read-out: Visual Growth Reduction (%) 21 Days After Application KCHSC

Row | SMILES | pest or weed control at 140 g/ha
27 | COC(=O)c1nc(-c2ccc(I)cc2)c(F)c(N)c1Cl [Compound 118, Methyl 4-amino-6-(4-iodophenyl)-3-chloro-5-fluoropicolinate] | 95 to 100%

Same assay, conditions: probit analysis, dose for growth reduction of 50 percent, 21 days after application

Row | SMILES | GR50 KCHSC
28 | COC(=O)c1nc(-c2ccc(I)cc2)c(F)c(N)c1Cl [Compound 118, Methyl 4-amino-6-(4-iodophenyl)-3-chloro-5-fluoropicolinate] | 3 g ai/ha

Same assay, conditions: probit analysis, dose for growth reduction of 80 percent, 21 days after application

Row | SMILES | GR80 KCHSC
29 | COC(=O)c1nc(-c2ccc(I)cc2)c(F)c(N)c1Cl [Compound 118, Methyl 4-amino-6-(4-iodophenyl)-3-chloro-5-fluoropicolinate] | 17 g ai/ha

System: HORSS: barley, including spring and winter (Hordeum vulgare)
Experiment: as above
Format: in vivo
Settings: Hordeum vulgare, post-emergence, 504 h; 35 g ai/ha; read-out: Visual Growth Reduction (%) 21 Days After Application HORSS
Summary of the method: as §1

Row | SMILES | pest or weed control at 35 g/ha
30 | COC(=O)c1nc(-c2ccc(I)cc2)c(F)c(N)c1Cl [Compound 118, Methyl 4-amino-6-(4-iodophenyl)-3-chloro-5-fluoropicolinate] | 85 to 94%

Same assay, conditions: Hordeum vulgare, post-emergence, 504 h; 70 g ai/ha; read-out: Visual Growth Reduction (%) 21 Days After Application HORSS

Row | SMILES | pest or weed control at 70 g/ha
31 | COC(=O)c1nc(-c2ccc(I)cc2)c(F)c(N)c1Cl [Compound 118, Methyl 4-amino-6-(4-iodophenyl)-3-chloro-5-fluoropicolinate] | 85 to 94%

Same assay, conditions: Hordeum vulgare, post-emergence, 504 h; 140 g ai/ha; read-out: Visual Growth Reduction (%) 21 Days After Application HORSS

Row | SMILES | pest or weed control at 140 g/ha
32 | COC(=O)c1nc(-c2ccc(I)cc2)c(F)c(N)c1Cl [Compound 118, Methyl 4-amino-6-(4-iodophenyl)-3-chloro-5-fluoropicolinate] | 85 to 94%

Same assay, conditions: probit analysis, dose for growth reduction of 20 percent, 21 days after application; crop

Row | SMILES | GR20 HORSS
33 | COC(=O)c1nc(-c2ccc(I)cc2)c(F)c(N)c1Cl [Compound 118, Methyl 4-amino-6-(4-iodophenyl)-3-chloro-5-fluoropicolinate] | 1 g ai/ha
